The source of these data is BindingDB's records for doi:10.1021/acs.jnatprod.5b00508 (Korea University, 2015).

The nature of assay [1]: Inhibition of amyloid beta (25 to 35 residues) (unknown origin) aggregate-induced toxicity in rat PC12 cells preincubated for 1 hr followed by amyloid beta challenge measured after 24 hrs by MTT assay. Background: Tetrazolium dyes change colour on reduction, which living cells bring about.
A short description of assay [2]: Inhibition of amyloid beta (1 to 42 residues) (unknown origin) aggregate-induced toxicity in rat PC12 cells assessed as cell viability at 4 to 100 ug/ml pre-incubated for 24 hrs with Abeta ( 1 to 42) followed by compound-Abeta (1 to 42) mixture addition to cells and measured after 24 hrs by MTT assay.

Structures are written as SMILES.

For orientation: EC50 means the concentration that produces a half-maximal response.

Take `CC(=O)O[C@H]1CC(=O)OC(C)(C)[C@@H]2CC[C@]3(C)[C@H](CC=C(C)[C@@]34C[C@]3(OC(C)=C(C)C3=O)C(=O)O4)[C@@]12C`: in assay [1], the response was half-maximal at 113 µM (EC50). Consider `C[C@@H]1C[C@@]23C[C@H]4C(C)(C)[C@@]5(C[C@]4(CN2C1=O)NC3=O)C(=O)Nc1c5ccc2c1C=CC(C)(C)O2`, for which the concentration for a half-maximal effect (EC50) in assay [1] was above 300 µM; in assay [2], 97.9 µM.

As to `CC1=CC[C@@H]2[C@@]3(C)[C@@H](O)CC(=O)OC(C)(C)[C@@H]3CC[C@@]2(C)[C@]12Cc1c(c(C)c(C)oc1=O)O2`, in assay [1], the EC50 is above 300 µM. Still for that read-out and setting: the figure for `CC1=CC[C@@H]2[C@@]3(C)C=CC(=O)OC(C)(C)[C@@H]3CC[C@@]2(C)[C@]12Cc1c(c(C)c(C)oc1=O)O2` is 65.4 µM. With `CN1C(=O)[C@@]23CCC(=O)N2C[C@@]12C[C@@]1(C(=O)Nc4c1ccc1c4C=CC(C)(C)O1)C(C)(C)[C@@H]2C3`, the EC50 is 150 µM in assay [1] and 89.9 µM in assay [2]. Consider `CC1(C)C=Cc2cc(C(=O)O)ccc2O1`, for which a half-maximal effect in assay [1] (EC50) was put at 252 µM.

`C[C@H]1CN2C[C@]34C[C@@]5(C(=O)Nc6c5ccc5c6OC=CC(C)(C)O5)C(C)(C)[C@@H]3C[C@@]2(C1)C(=O)N4C`: the half-maximal effective concentration (EC50) in assay [1] is above 300 µM; in assay [2], 105 µM. As to `C[C@H]1CN2C[C@]34C[C@@]5(C(=O)Nc6c5ccc5c6C=CC(C)(C)O5)C(C)(C)[C@@H]3C[C@@]2(C1)C(=O)N4C`, the 50% effective concentration (EC50) in assay [1] is above 300 µM.

In assay [1], `C[C@@H]1C[C@@]23C[C@H]4C(C)(C)[C@@]5(C[C@]4(CN2C1=O)N(C)C3=O)C(=O)Nc1c5ccc2c1C=CC(C)(C)O2` registered a 50% effective concentration (EC50) above 300 µM. Same read-out and setting: the figure for `C[C@@H]1C[C@@]23C[C@H]4C(C)(C)[C@@]5(C[C@]4(CN2C1=O)NC3=O)C(=O)Nc1c5ccc2c1OC=CC(C)(C)O2` is above 300 µM. Regarding `O=C(/C=C/c1ccc(O)c(O)c1)O[C@H](Cc1ccc(O)c(O)c1)C(=O)O` [Rosmarinic acid, 2], the EC50 in assay [1] stood at 68.1 µM; in assay [2], 57.2 µM.
